Measurements from patent US10143668B2, “Hydroxy-substituted amino and ammonium derivatives and their medical use” (GRI BIO, INC., priority 2011, dated 2018).
Where “and” joins values, the source holds several entries; their conditions need not be identical. Identical values can stand only once. Marks after values point to notes of the source that are not given here.

How the values were obtained:
[1] = test system: allergic contact dermatitis response in mice; experiment: Allergic contact dermatitis (TDI) model in mice, mouse ear swelling test; format: in vivo
Method: The anti-inflammatory and anti-allergic effects of compound 1a were assessed in a mouse model of allergic contact dermatitis, a response driven primarily by T helper type 2 (Th2) cells. […] In this model, an allergic dermatitis response is obtained by sensitizing mice to TDI and subsequently challenging them with antigen by topical administration onto the ears. A quantitative assessment of anti-inflammatory and anti-allergic effects of topically or orally administered test compounds is possible by measuring the resulting ear swelling.
Female BALB/c-mice were obtained from Charles River (Sulzfeld, Germany) at age 8 weeks. All animals were housed in groups of eight per cage at 22° C. with a 12 h light/dark-cycle. Water and a standard diet (Altromin, Lage/Lippe, Germany) were available ad libitum. All animals were acclimatized for one week before experimental procedures were commenced.
Experimental procedures for BALB/c mice housing, TDI sensitization and challenge, and measurement of ear thickness were performed as previously described (Baumer et al., J Pharm Pharmacol. 55:1107-1114 (2003)) with the following modifications. For active sensitization, 100 μL of 5% (w/v) TDI was administered to the shaved and stripped abdominal epidermis on day one, and for the next three consecutive days, 50 μL of 5% (w/v) TDI was applied. The allergic reaction was boosted 21 days later by application of 50 μL of 0.5% (w/v) TDI. For the examination of test compound effects, the left ears were used for the TDI challenge (20 μL of 0.5% in acetone) and ear thickness measured 3 h before and 24 h after challenge.
Administration time: to determine optimal time for administration treatment groups were treated orally by gavage with 100 mg/kg of compound 1a (suspended in 0.5% tylose, 10 mL/kg) 1, 4 or 16 h before topical TDI challenge. One group was treated with 100 mg/kg miltefosine orally, 16 h before challenge (based on available data for optimal administration time for miltefosine) and vehicle treated mice received tylose (10 mL/kg) orally, 4 h before challenge.
Comparison with dexamethasone: one group of mice was treated orally with compound 1a at 100 mg/kg suspended in 0.5% tylose, 4 h before topical TDI challenge. Vehicle treated mice received 0.5% tylose orally 4 h before challenge. As a positive control, dexamethasone was administered in saline solution at 1 mg/kg or 3 mg/kg, 2 h and 30 min before challenge and 1 h after challenge. The dose and dosing scheme for dexamethasone was based on previous experience showing a maximal effect in this model.
[…] The solution was applied, 2 h before topical TDI challenge by administration of 10 μl onto each of the inner and outer surfaces of the left ears. A vehicle group (n=5) was treated with propyleneglycol. As a positive control, diflorasone diacetate was administered at 0.01% (low dose) and 0.05% (high dose) in 20 μl acetone, 2 h before challenge. A basal control group was left untreated.
Mean and standard error of the mean (SEM) were calculated from individual ear edema values. Statistical evaluation was a one-way analysis of variance (ANOVA) (if the test for normal distribution was passed) or the Kruskal-Wallis one-way ANOVA on Ranks (if the normal distribution test failed). Both were followed by a post-hoc test (Dunnett's method or Dunn's test, respectively). A p<0.05 was considered to be significant.

RBL-2H3 cells = experiment: Maximum tolerated concentration (cytotoxicity by lactate dehydrogenase release); format: cell-based, rat
Excerpt: The safety index (SI) of a test compound is the ratio between the maximum tolerated concentration and the IC50 and is used as a measure of the relative safety of the test compound.

For CCCCCCCCCCCCCC[N+](C)(C)CC(=O)N(C)C[C@H](O)[C@@H](O)[C@H](O)[C@H](O)CO [Compound 1a, N-(2-(Dimethyl(tetradecyl)ammonio)acetyl)-N-methyl-D-glucamine chloride], the toxicity ([1]; 100 mg/kg oral) was “no toxicity”, the “inhibition relative to the highest dose of dexamethasone” value ([1]; 100 mg/kg oral vs dexamethasone 3 mg/kg) was 37% and the “Inhibition of mouse ear swelling” value ([1]; administration time study, 100 mg/kg oral, 1 h before TDI challenge) was 43.5* %. The “Inhibition of mouse ear swelling” value ([1]; administration time study, 100 mg/kg oral, 4 h before TDI challenge) was 63% and 62.9*** %, the “Inhibition of mouse ear swelling” value ([1]; administration time study, 100 mg/kg oral, 16 h before TDI challenge) was 43.5^§ % and the “Inhibition of mouse ear swelling” value ([1]; comparison with dexamethasone, 100 mg/kg oral, 4 h before challenge) was 32%. The “Inhibition of mouse ear swelling” value ([1]; topical, 2% solution in propyleneglycol, 2 h before challenge) was 68% and 67.7*** %, the “Inhibition of mouse ear swelling” value ([1]; topical, 6% solution in propyleneglycol, 2 h before challenge) was 83% and 82.2*** % and the “MTC (maximum tolerated concentration)” value (RBL-2H3 cells; highest concentration not causing cytotoxicity (LDH release)) was 150 µM. For the same compound, the “SI (safety index)” value (RBL-2H3 cells; ratio between MTC and IC50) was 39.5.
